Source: US10414734B2, “5-hydroxyalkylbenzimidazoles as mIDH1 inhibitors” (BAYER PHARMA AKTIENGESELLSCHAFT, priority 2015, dated 2019)
pIC50: −log10 of the molar value.

biological target: IDH1 R132H enzyme (Homo sapiens (Human), UniProt O75874, R132H); test: Mutant IDH1 R132H biochemical assay; details: luminescent NADPH consumption readout; 1.5 nM enzyme, 1 μM NADPH, 250 μM α-KG, 30 min, 32° C.
Experimental: Mutant IDH1 R132H Biochemical Assay
mIDH1 catalyzes the NADPH-dependent reduction of alpha-ketoglutarate (α-KG) to (2R)-2-hydroxyglutarate (2-HG). NADPH consumption was measured by luminescent readout.
The biochemical reactions were performed at 32° C. in 384-well plates using a reaction volume of 41 μL and the following assay buffer conditions: 50 mM Tris pH 7.5, 100 mM NaCl, 20 mM MgCl2, 0.05% BSA, 0.01% Brij, 1 μM NADPH, and 250 μM α-KG. The IDH1 R132H enzyme was used in a final concentration of 1.5 nM. Test compounds were used in a concentration range between 0.002 and 10 μM. The final DMSO concentration was 2.4%.
The reaction was incubated for 30 minutes, then 40 μL of detection mix (0.75 μg/ml Luciferase, 0.02 U/ml Oxidoreductase, 4 μg/mL FMN, 2 μL/ml decanal/ethanol, 50 mM Tris pH 7.5, 0.5% Glycerin, 0.01% Tween-20, 0.05% BSA) was added. Luminescence was measured on a luminescent reader (10 seconds measuring time, 1 second integration period, 30% sensitivity). The decrease in luminescence is proportional to mIDH1 activity. IC50 values are determined by interpolation from plots of relative luminescence versus inhibitor concentration.

Sequence of IDH1 R132H enzyme (O75874 whole entry R132H): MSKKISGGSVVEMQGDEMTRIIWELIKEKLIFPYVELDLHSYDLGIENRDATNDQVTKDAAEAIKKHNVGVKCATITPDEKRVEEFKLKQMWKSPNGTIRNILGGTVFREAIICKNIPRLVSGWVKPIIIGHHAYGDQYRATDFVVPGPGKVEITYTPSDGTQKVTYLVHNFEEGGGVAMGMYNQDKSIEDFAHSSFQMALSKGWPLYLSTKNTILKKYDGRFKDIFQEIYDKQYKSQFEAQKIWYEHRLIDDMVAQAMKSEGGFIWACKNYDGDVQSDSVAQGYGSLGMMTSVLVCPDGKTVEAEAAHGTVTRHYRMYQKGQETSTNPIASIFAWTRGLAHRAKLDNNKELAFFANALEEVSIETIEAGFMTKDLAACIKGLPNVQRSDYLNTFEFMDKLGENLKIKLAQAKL

pIC50 | Structure (SMILES)
6.49 | C[C@@H]1C[C@H](n2c(Nc3ccc(OC(F)(F)F)cc3)nc3cc(CC(C)(C)O)c(F)cc32)CC(C)(C)C1 (single isomer, unassigned; enantiomer a) [Example 2-10-1, 1-(6-fluoro-2-{[4-(trifluoromethoxy)phenyl]amino}-1-[(cis)-3,3,5-trimethylcyclohexyl]-1H-benzimidazol-5-yl)-2-methylpropan-2-ol, enantiomer A]
7.52 | COc1cc2c(cc1CC(C)(C)O)nc(Nc1ccc(OC(F)(F)F)cc1)n2[C@H]1C[C@@H](C)CC(C)(C)C1 (single isomer, unassigned; enantiomer a) [Example 2-9-1, 1-(6-methoxy-2-{[4-(trifluoromethoxy)phenyl]amino}-1-[(cis)-3,3,5-trimethylcyclohexyl]-1H-benzimidazol-5-yl)-2-methylpropan-2-ol, enantiomer A]
6.54 | CC(C)c1ccc(Nc2nc3cc(CCC(C)(C)O)ccc3n2[C@@H]2C[C@H](C)CC[C@H]2C(C)C)cc1 [Example 2-19, 4-{1-[(1R,2S,5R)-2-isopropyl-5-methylcyclohexyl]-2-[(4-isopropyl-phenyl)amino]-1H-benzimidazol-5-yl}-2-methylbutan-2-ol]
7.00 | CC(C)[C@@H]1CC[C@@H](C)C[C@H]1n1c(Nc2ccc(OC(F)(F)F)cc2)nc2cc(CCC(C)(C)O)ccc21 [Example 2-18, 4-(1-[(1R,2S,5R)-2-isopropyl-5-methylcyclohexyl]-2-{[4-(trifluoro-methoxy)phenyl]amino}-1H-benz-imidazol-5-yl)-2-methylbutan-2-ol]
7.10 | Cc1cc2c(cc1C(C)(C)O)nc(Nc1ccc(OC(F)(F)F)cc1)n2[C@H]1C[C@@H](C)CC(C)(C)C1 (single isomer, unassigned; enantiomer a) [Example 2-3-1, 2-(6-methyl-2-{[4-(trifluoromethoxy)phenyl]amino}-1-[(cis)-3,3,5-trimethylcyclohexyl]-1H-benzimidazol-5-yl)propan-2-ol, enantiomer A]
8.00 | COc1cc2c(cc1CCC(C)(C)O)nc(Nc1ccc(OC(F)(F)F)cc1)n2[C@H]1C[C@@H](C)CC(C)(C)C1 (single isomer, unassigned; enantiomer b) [Example 2-12-2, 4-(6-methoxy-2-{[4-(trifluoromethoxy)phenyl]amino}-1-[(cis)-3,3,5-trimethylcyclohexyl]-1H-benzimidazol-5-yl)-2-methylbutan-2-ol, enantiomer B]
7.22 | CC(C)c1ccc(Nc2nc3cc(CC(C)(C)O)ccc3n2[C@@H]2C[C@H](C)CC[C@H]2C(C)C)cc1 [Example 2-16, 1-{1-[(1R,2S,5R)-2-isopropyl-5-methylcyclohexyl]-2-[(4-isopropyl-phenyl)amino]-1H-benzimidazol-5-yl}-2-methylpropan-2-ol]
6.52 | CC(C)Oc1ccc(Nc2nc3cc(CCC(C)(C)O)ccc3n2[C@@H]2C[C@H](C)CC[C@H]2C(C)C)cc1 [Example 2-20, 4-{2-[(4-isopropoxyphenyl)amino]-1-[(1R,2S,5R)-2-isopropyl-5-methylcyclohexyl]-1H-benzimidazol-5-yl}-2-methylbutan-2-ol]
8.00 | Cc1cc2c(cc1CC(C)(C)O)nc(Nc1ccc(OC(F)(F)F)cc1)n2[C@H]1C[C@@H](C)CC(C)(C)C1 (single isomer, unassigned; enantiomer b) [Example 2-8-2, 2-methyl-1-(6-methyl-2-{[4-(trifluoromethoxy)phenyl]amino}-1-[(cis)-3,3,5-trimethylcyclohexyl]-1H-benzimidazol-5-yl)propan-2-ol, enantiomer B]
7.30 | COc1cc2c(cc1CCC(C)(C)O)nc(Nc1ccc(OC(F)(F)F)cc1)n2[C@H]1C[C@@H](C)CC(C)(C)C1 (single isomer, unassigned; enantiomer a) [Example 2-12-1, 4-(6-methoxy-2-{[4-(trifluoromethoxy)phenyl]amino}-1-[(cis)-3,3,5-trimethylcyclohexyl]-1H-benzimidazol-5-yl)-2-methylbutan-2-ol, enantiomer A]
6.62 | C[C@@H]1C[C@H](n2c(Nc3ccc(OC(F)(F)F)cc3)nc3cc(CC(C)(C)O)c(F)cc32)CC(C)(C)C1 (racemic) [Example 2-10, (±) 1-(6-fluoro-2-{[4-(trifluoromethoxy)phenyl]amino}-1-[(cis)-3,3,5-trimethylcyclohexyl]-1H-benzimidazol-5-yl)-2-methylpropan-2-ol]
6.92 | Cc1cc2c(cc1CC(C)(C)O)nc(Nc1ccc(OC(F)(F)F)cc1)n2[C@H]1C[C@@H](C)CC(C)(C)C1 (single isomer, unassigned; enantiomer a) [Example 2-8-1, 2-methyl-1-(6-methyl-2-{[4-(trifluoromethoxy)phenyl]amino}-1-[(cis)-3,3,5-trimethylcyclohexyl]-1H-benzimidazol-5-yl)propan-2-ol, enantiomer A]
6.92 | CC(C)c1ccc(Nc2nc3cc(C(C)(C)O)ccc3n2[C@@H]2C[C@H](C)CC[C@H]2C(C)C)cc1 [Example 2-14, 2-{1-[(1R,2S,5R)-2-isopropyl-5-methylcyclohexyl]-2-[(4-isopropyl-phenyl)amino]-1H-benzimidazol-5-yl}propan-2-ol]
7.70 | COc1cc2c(cc1CC(C)(C)O)nc(Nc1ccc(OC(F)(F)F)cc1)n2[C@H]1C[C@@H](C)CC(C)(C)C1 (racemic) [Example 2-9, (±) 1-(6-methoxy-2-{[4-(trifluoromethoxy)phenyl]amino}-1-[(cis)-3,3,5-trimethylcyclohexyl]-1H-benzimidazol-5-yl)-2-methylpropan-2-ol]
7.40 | CC(C)[C@@H]1CC[C@@H](C)C[C@H]1n1c(Nc2ccc(OC(F)(F)F)cc2)nc2cc(CC(C)(C)O)ccc21 [Example 2-15, 1-(1-[(1R,2S,5R)-2-isopropyl-5-methylcyclohexyl]-2-{[4-(trifluoro-methoxy)phenyl]amino}-1H-benz-imidazol-5-yl)-2-methylpropan-2-ol]
7.10 | CC(C)[C@@H]1CC[C@@H](C)C[C@H]1n1c(Nc2ccc(OC(F)(F)F)cc2)nc2cc(C(C)(C)O)ccc21 [Example 2-13, 2-(1-[(1R,2S,5R)-2-isopropyl-5-methylcyclohexyl]-2-{[4-(trifluoromethoxy)phenyl]-amino}-1H-benzimidazol-5-yl)propan-2-ol]
7.70 | Cc1cc2c(cc1C(C)(C)O)nc(Nc1ccc(OC(F)(F)F)cc1)n2[C@H]1C[C@@H](C)CC(C)(C)C1 (single isomer, unassigned; enantiomer b) [Example 2-3-2, 2-(6-methyl-2-{[4-(trifluoromethoxy)phenyl]amino}-1-[(cis)-3,3,5-trimethylcyclohexyl]-1H-benzimidazol-5-yl)propan-2-ol, enantiomer B]

Structure (SMILES) | pIC50
COc1cc2c(cc1CO)nc(Nc1ccc(OC(F)(F)F)cc1)n2[C@H]1C[C@@H](C)CC(C)(C)C1 (racemic) [Example 2-6, (±) (6-methoxy-2-{[4-(trifluoromethoxy)phenyl]amino}-1-[(cis)-3,3,5-trimethylcyclohexyl]-1H-benzimidazol-5-yl)methanol] | 7.70
COc1cc2c(cc1C(C)(C)O)nc(Nc1ccc(OC(F)(F)F)cc1)n2[C@H]1C[C@@H](C)CC(C)(C)C1 (racemic) [Example 2-7, (±) 2-(6-methoxy-2-{[4-(trifluoromethoxy)phenyl]amino}-1-[(cis)-3,3,5-trimethylcyclohexyl]-1H-benzimidazol-5-yl)propan-2-ol] | 7.70
